Measured values: patent US7232837B2, “Stereoisomers with high affinity for adrenergic receptors” (McNeil-PPC, Inc., priority 1999, dated 2007)
Like-named read-outs stand apart in the source and are kept apart here.

Tests used:
Swiss-Webster mice = test: Locomotor stimulant and depressant effects in mice; conditions: i.p.
Procedure: Male Swiss-Webster mice (HSD ND4, Harlan Sprague Dawley, Houston, Tex.) aged 2–3 months were used in these studies. Each dose group consisted of 8 mice. The mice were housed 2 to 4 per cage in 30.4×22.9×15.2 cm clear polycarbonate cages with food and water available ad libitum for at least one week prior to locomotor activity testing. The colony was maintained at 23±1° C., on a normal light-dark cycle beginning at 0700 hr. All testing took place during the light portion of the light-dark cycle.
Horizontal (forward movement) locomotor activity was measured using a standardized, optical activity monitoring system [Model KXYZCM (16), Omnitech Electronics, Columbus, Ohio]. Activity was monitored in forty 40.5×40.5×30.5 cm clear acrylic chambers that where housed in sets of two within larger sound-attenuating chambers. A panel of 16 infrared beams and corresponding photodetectors were spaced 2 cm apart along the sides and 2.4 cm above the floor of each activity chamber. A 7.5-W incandescent light above each chamber provided dim illumination via a rheostat set to 20% of full scale. Fans provided an 80-dB ambient noise level within the chamber.
Triprolidine HCl was obtained from Research Biochemicals International, (Natick, Mass.).
Locomotor stimulant effects. […] (+)-Amphetamine was used as a positive control. The total horizontal distance traversed (cm) was recorded at 10 minute intervals for a 2-hour session. Separate groups of 8 mice were assigned to each dose or saline group, and dose-effect testing continued for each compound until maximal stimulant or depressant effects could be estimated. A separate control group was tested along with each compound.
Using TableCurve 2D v2.03 (Jandel Scientific), the mean average total distance traversed (cm/10 min) for that period was fit to a 3-parameter logistic peak function of log10 dose (with the constant set to the mean of the saline group), and the maximum effect estimated from the resulting curve. The […] (dose producing ½ maximal stimulant activity) was estimated from a linear regression against log10 dose of the ascending portion of the dose-effect curve. The stimulant efficacy was the peak effect of the compound (cm/10 min) as estimated from the logistic peak function, minus the mean control distance traveled (cm/10 min), and was expressed for each stimulant compound as a ratio to the stimulant efficacy determined for (+)-amphetamine.
The mean average total distance traversed (cm/10 min) for that period were fit to a linear function of log10 dose of the descending portion of the dose-effect curve. […] Efficacy was the ratio of maximal depressant effect to maximum possible depression for each compound (mean average total distance of the control group minus the lowest mean total distance, expressed as a ratio to the control group total distance).
Statistical analysis. Time course data for each compound were considered in 2-way analyses of variance with dose as a between-group and time as a within-group factor. The dose-effect data were considered in 1-way analyses of variance, and planned individual comparisons were conduced between each dose and the saline control group. Interaction studies were considered in 2-way analyses of variance, with Pretreatment and Test dose as the factors.

α2 adrenergic receptors = test: Alpha-2 binding, 125iodoclonidine, canine brain (frontal cortex) membranes; design: species or system canine (mongrel dogs); conditions: canine cerebral cortex membranes
Procedure: BRAIN ALPHA-2 RECEPTORS: Membranes of mongrel dogs were harvested from the canine frontal cortex and prepared as described for lung except that the final membrane protein concentration was adjusted to 0.5 mg/ml.
ALPHA-2 BINDING ^125IODOCLONIDINE. […] Nonspecific binding was determined in separate incubations in the presence of 10 μM phentolamine. The final concentration of p-iodoclonidine was 44–45 pM in competition studies and between 50 pM and 10 nM in saturation experiments. Bound and free p-^125iodoclonidine were separated and the bound quantified as described above for the ICYP assays. […] BETA-2 BINDING, ^125IODOCYANOPINDOLOL (^125ICYP). […] Nonspecific binding was determined in separate incubations in the presence of 2 μM d,l-propranolol. Each experimental point was determined in triplicate. […] Incubations were terminated as described above for the α1 assays. Filters were placed into polyethylene tubes and the bound ligand was determined by gamma spectrometry (Sano et al., 1993).
All data were analyzed with the aid of microcomputer nonlinear curve fitting programs (PRISM 2.0, Graphpad Software, San Diego Calif.).
The receptors resident in each of the three membrane preparations were evaluated by standard saturation analysis following the addition of increasing concentrations of the appropriate radioligand. […] The radio ligand added for subsequent α2-displacement assays was adjusted to evaluate only the high affinity receptor. Contributions from p-iodoclonidine binding to imidazoline receptors in the α2-displacement assay were evaluated with epinephrine.
The variable, I, is the concentration of tracer added and the variable, Kd, is the equilibrium dissociation constant empirically determined for this receptor population.

| SMILES | locomotor stimulant effects, time course (result in words) (Swiss-Webster mice) | Kd (α2 adrenergic receptors; Saturation Analysis, read-out: Kd1 (high affinity)) [nM] | Kd (α2 adrenergic receptors; Saturation Analysis, read-out: Kd2 (low affinity)) [nM] | Kd (α2 adrenergic receptors; Scatchard Analysis, read-out: Kd1 (high affinity)) [nM] | Kd (α2 adrenergic receptors; Scatchard Analysis, read-out: Kd2 (low affinity)) [nM] |
| --- | --- | --- | --- | --- | --- |
| CC(N)Cc1ccccc1 (single isomer, unassigned; (+)) [(+)-amphetamine, (+)-Amphetamine] | dose- and time-dependent increase in the distance traversed within 10 minutes following injection | – | – | – | – |
| Clc1cc(I)cc(Cl)c1NC1=NCCN1 [p-iodoclonidine] | – | 0.15 | 3.01 | 0.15 | 0.87 |
